Test results: patent publication US20210283109A1, “HETEROCYCLIC DIAMIDINES” (Friedrich-Alexander-Universität Erlangen-Nürnberg, priority 2016, published 2021)

Legend:
[1] = tested on: pre-established bleomycin induced skin fibrosis in mice; experiment: Regression of pre-established bleomycin induced skin fibrosis; assay type: in vivo; details: 6 weeks of bleomycin, treatment for the last 3 weeks
Method: (§1) Dermal fibroblasts from patients with SSc were cultured in the presence of DB1976. […] Moreover, in the presence of DB1976 differentiation of fibroblasts into matrix-producing myofibroblasts is inhibited (FIG. 3C). Bleomycin induced skin fibrosis was induced by local injections of bleomycin in C57Bl/6 mice (10 weeks of age, mixed genders) for four weeks. Subcutaneous injections of 0.9% NaCl served as a control. DB1976 was administered into tail vein every second day in different concentrations (1 mg/kg body weight; 5 mg/kg body weight) after first application of bleomycin. […] Bleomycin-induced pulmonary fibrosis was induced by a single intratracheal application of bleomycin in C57Bl/6 mice (12 weeks of age, males) using a high pressure syringe (Penn-Century, Wyndmoor, Pa., USA). Instillation of equal volumes of 0.9% NaCl served as a control. […] Carbon tetrachloride CCl4-induced hepatic fibrosis was induced by intraperitoneal (i.p.) injections of CCl4 in […] mice (14 weeks of age, mixed genders) (Palumbo-Zerr et al. Nature Medicine 21, 150-158 (2015)) twice weekly. […] DB1976 was also effective when initiated after fibrosis had already become manifest. In those experiments, mice were pre-challenged with bleomycin for 3 weeks to induce robust skin fibrosis. After 3 weeks, treatment with DB1976 was initiated, while injections with bleomycin were continued. […] Therapeutic application of DB1976 ameliorated skin thickness, collagen content and myofibroblast counts in the skin (FIG. 6A-F).
FIG. 6: Regression of pre-established bleomycin induced skin fibrosis by treatment with DB1976. Mice were pre-challenged with bleomycin for 3 weeks to induce robust skin fibrosis. After 3 weeks, treatment with DB1976 was initiated, while injections with bleomycin were continued. After a total of 6 weeks of bleomycin and 3 weeks of treatment with DB1976, the extent of fibrosis was assessed. (A) Representative images of trichrome staining of skin tissue from control mice (Wild-type (WT) treated with sodium chloride; n≥4), 3 weeks bleomycin and afterwards 3 weeks sodium chloride treated mice (n≥8), bleomycin treated mice (n≥8) and mice treated with bleomycin and different concentrations of DB1976 (n≥3 each); (B;C) mRNA expression level of col1a1 and col1a2; (D) dermal thickness; (E) quantification of α-smooth muscle actin-positive myofibroblasts; (F) hydroxyproline content.

PU.1 = details: cited from earlier work
[2] = tested on: human diseased dermal fibroblasts; experiment: Collagen release from fibroblasts after stimulation with TGF-β; assay type: cell-based; details: compared to TGF-β alone
Method: (§2) Dermal fibroblasts from patients with SSc were cultured in the presence of DB1976. […] Moreover, in the presence of DB1976 differentiation of fibroblasts into matrix-producing myofibroblasts is inhibited (FIG. 3C). Bleomycin induced skin fibrosis was induced by local injections of bleomycin in C57Bl/6 mice (10 weeks of age, mixed genders) for four weeks. Subcutaneous injections of 0.9% NaCl served as a control. DB1976 was administered into tail vein every second day in different concentrations (1 mg/kg body weight; 5 mg/kg body weight) after first application of bleomycin. […] Bleomycin-induced pulmonary fibrosis was induced by a single intratracheal application of bleomycin in C57Bl/6 mice (12 weeks of age, males) using a high pressure syringe (Penn-Century, Wyndmoor, Pa., USA). […]
(A) Formazan toxicity assay of fibroblasts incubated with different concentrations of DB1976 as indicated; (B) human diseased dermal fibroblasts untreated or stimulated with either TGF-β alone or TGF-β plus DB1976; collagen protein level and mRNA level of col1a1 relative to control. […] (C) Immune fluorescence microscopy of cultured fibroblasts as indicated; cells are stained with DAPI, alpha smooth muscle actin (αSMA) and stress fibers. Representative image of 5 independent experiments are shown. *p<0.05 determined by Student's t test according pretest for normality (D'Agostino-Pearson normality test). […]

[3] = tested on: Bleomycin induced skin fibrosis in C57Bl/6 mice; experiment: Bleomycin induced skin fibrosis model; assay type: in vivo; details: tail vein every second day, 1 and 5 mg/kg body weight, bleomycin four weeks; concentration dependent
Method: as §1
FIG. 4: Model of bleomycin induced skin fibrosis. (A) Representative images of trichrome staining of skin tissue from control mice (Wild-type (WT) treated with sodium chloride; n≥7), bleomycin treated mice (n=10) and mice treated with bleomycin and different concentrations of DB1976 (n≥8 each); (B;C) mRNA collagen1a1 or collagen1a2 expression; (D) dermal thickness; (E) quantification of α-smooth muscle actin-positive myofibroblasts; (F) hydroxyproline content.

[4] = tested on: CCl4-induced hepatic fibrosis in mice; experiment: Carbon tetrachloride CCl4-induced hepatic fibrosis model; assay type: in vivo; details: CCl4 i.p. twice weekly
Method: as §1
(§3) FIG. 5: Model of bleomycin induced lung and CCI-4 induced liver fibrosis. (A) Representative images of sirius red staining of lung tissue from control mice (Wild-type (WT) treated with sodium chloride; n=4), bleomycin treated mice (n≥7) and mice treated with bleomycin and DB1976 (n=≥5); (B) quantification of the fibrotic area; (C, D) mRNA expression level of col1a1 and col1a2; (E) hydroxyproline content.

[5] = tested on: Bleomycin-induced pulmonary fibrosis in C57Bl/6 mice; experiment: Bleomycin-induced pulmonary fibrosis model; assay type: in vivo; details: lung; compared to mice that received bleomycin without compound
Method: as §1, §3

[6] = tested on: Dermal fibroblasts from patients with SSc; experiment: Formazan toxicity assay of fibroblasts; assay type: cell-based, human; details: dermal fibroblasts from SSc patients cultured with different concentrations of compound
Method: as §2
(§4) (A) Formazan toxicity assay of fibroblasts incubated with different concentrations of DB1976 as indicated; (B) human diseased dermal fibroblasts untreated or stimulated with either TGF-β alone or TGF-β plus DB1976; collagen protein level and mRNA level of col1a1 relative to control. […] (C) Immune fluorescence microscopy of cultured fibroblasts as indicated; cells are stained with DAPI, alpha smooth muscle actin (αSMA) and stress fibers. Representative image of 5 independent experiments are shown. *p<0.05 determined by Student's t test according pretest for normality (D'Agostino-Pearson normality test).

mice = experiment: Tolerability of treatment in mice; assay type: in vivo
Method: Dermal fibroblasts from patients with SSc were cultured in the presence of DB1976. […] Moreover, in the presence of DB1976 differentiation of fibroblasts into matrix-producing myofibroblasts is inhibited (FIG. 3C). Bleomycin induced skin fibrosis was induced by local injections of bleomycin in C57Bl/6 mice (10 weeks of age, mixed genders) for four weeks. Subcutaneous injections of 0.9% NaCl served as a control. DB1976 was administered into tail vein every second day in different concentrations (1 mg/kg body weight; 5 mg/kg body weight) after first application of bleomycin. […] Bleomycin-induced pulmonary fibrosis was induced by a single intratracheal application of bleomycin in C57Bl/6 mice (12 weeks of age, males) using a high pressure syringe (Penn-Century, Wyndmoor, Pa., USA). Instillation of equal volumes of 0.9% NaCl served as a control. […] Carbon tetrachloride CCl4-induced hepatic fibrosis was induced by intraperitoneal (i.p.) injections of CCl4 in […] mice (14 weeks of age, mixed genders) (Palumbo-Zerr et al. Nature Medicine 21, 150-158 (2015)) twice weekly. […] DB1976 was also effective when initiated after fibrosis had already become manifest. In those experiments, mice were pre-challenged with bleomycin for 3 weeks to induce robust skin fibrosis. After 3 weeks, treatment with DB1976 was initiated, while injections with bleomycin were continued. […]

[7] = tested on: Dermal fibroblasts from patients with SSc; experiment: Differentiation of fibroblasts into matrix-producing myofibroblasts (αSMA, stress fibers, immune fluorescence microscopy); assay type: cell-based, human; details: in the presence of compound
Method: as §2, §4

[8] = tested on: Cancer associated fibroblasts (CAFs); experiment: Matrix production of cancer associated fibroblasts activated by TGF-β; assay type: cell-based, human; details: cultured with compound for 96 h, compared to CAFs without compound
Excerpt: Cancer associated fibroblasts (CAFs) are associated with cancer cells at all stages of cancer progression, and their structural and functional contributions to this process are well known. This implies that CAFs have a prominent role in the progression, growth and spread of cancers and represent an important target for cancer therapies.
FIG. 7: DB1976 inhibits collagen production of cancer associated fibroblasts (CAFs). (A) Quantification of PU.1-expressing fibroblasts in healthy colon tissue compared to tumor tissue (colorectal carcinoma). Cells are counted per high power field (HPF). (B) collagen production of CAFs assessed by western blot analysis; PU.1, collagen and β-actin expression in response to stimulation w/o TGF-β in the presence and absence of DB1976; representative blots of 6 independent experiments are shown. […] (C) Immune fluorescence microscopy of fibroblasts from healthy tissue (HC) and CAFs cultured w/o DB1976; DAPI and alpha smooth muscle actin (αSMA) are stained. Representative images of 5 independent experiments are shown. *p<0.05; **p<0.01 determined by Mann-Whitney U-test for non-parametric data.

apoptosis = experiment: Apoptosis by staining for cleaved caspase-3 or TUNEL assays

N=C(N)c1ccc2nc(-c3ccc(-c4nc5ccc(C(=N)N)cc5[nH]4)[se]3)[nH]c2c1 [DB1976]
collagen content in the skin [1]: ameliorated
myofibroblast counts in the skin [1]: ameliorated
skin thickness [1]: ameliorated
extent of fibrosis ([1]; compared to controls): significantly reduced
inhibition of PU.1-binding to the DNA of PU.1 target genes (PU.1): potent inhibitor
collagen release from fibroblasts [2]: strong reduction
collagen release assessed by col1a2 mRNA expression [3]: significantly decreased
collagen release assessed by hydroxyproline content of the skin [3]: significantly decreased
myofibroblast differentiation [3]: significantly decreased
skin thickening [3]: significantly decreased
fibrotic tissue remodeling of the liver [4]: significant less
collagen production ([4]; liver): less
myofibroblast differentiation ([4]; liver): less
Ashcroft score [5]: reduced
collagen expression (hydroxyproline content) [5]: decreased
collagen expression (mRNA) [5]: decreased
myofibroblast count [5]: decreased
volume of fibrotic area [5]: decreased
toxic effects in formazan toxicity assays [6]: did not observe toxic effects
clinical evidence of toxicity (mice): no clinical evidence of toxicity
tolerability of treatment (mice): well-tolerated
differentiation of fibroblasts into matrix-producing myofibroblasts [7]: inhibited
alpha smooth muscle actin (αSMA) [8]: significant reduction
collagen production [8]: significant reduction
stress fiber expression [8]: significant reduction
apoptosis by TUNEL assays (apoptosis): did not detect any evidence of apoptosis
apoptosis in staining for cleaved caspase-3 (apoptosis): did not detect any evidence of apoptosis
